Target: T1, DCAF1 WD40 domain (residues 1077-1390) (Homo sapiens, UniProt Q9Y4B6)
T1 construct: DCAF1 WD40 domain (residues 1077-1390)
Assay: DCAF1 binding assay by SPR (Biacore 8K+), DCAF1-3 KD
Conditions: 25 °C, read-out: DCAF1-3 SPR (KD)

T1 sequence (Q9Y4B6 1077-1390): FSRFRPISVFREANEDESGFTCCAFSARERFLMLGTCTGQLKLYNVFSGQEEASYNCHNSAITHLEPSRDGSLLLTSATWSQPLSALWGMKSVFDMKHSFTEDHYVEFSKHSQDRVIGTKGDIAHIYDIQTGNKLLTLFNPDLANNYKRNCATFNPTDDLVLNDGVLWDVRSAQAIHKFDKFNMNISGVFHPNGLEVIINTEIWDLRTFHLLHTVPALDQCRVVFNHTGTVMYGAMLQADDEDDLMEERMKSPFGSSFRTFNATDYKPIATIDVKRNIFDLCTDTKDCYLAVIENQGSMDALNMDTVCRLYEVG

| SMILES | Kd |
| --- | --- |
| Fc1cccc(N2CCCC(n3cnc4nccc(N5CCOCC5)c43)C2)c1 (stereo not drawn) [I-324] | > 200 µM |
| Oc1ccc(N2CCOCC2)cc1N[C@@H]1CCCN(c2cccc(F)c2)C1 [I-325] | > 200 µM |
| Fc1cccc(N2CCC[C@@H](Nc3nc(N4CCOCC4)c[nH]3)C2)c1 [I-326] | > 200 µM |
| Fc1cccc(N2CCC[C@@H](Nc3ncc(N4CCOCC4)o3)C2)c1 [I-327] | > 200 µM |
| Fc1cccc(N2CCC[C@@H](Nc3ncc(N4CCOCC4)s3)C2)c1 [I-328] | > 200 µM |
| Fc1cccc(N2CCC[C@@H](Nc3cc(N4CCOCC4)[nH]n3)C2)c1 [I-329] | > 200 µM |
| COCCc1[nH]nc(C(=O)N[C@@H](CC(N)=O)c2cccc(Cl)c2)c1-c1ccccc1F [I-330] | > 200 µM |
| Cc1cccc(C(CC(N)=O)NC(=O)c2cn[nH]c2-c2ccccc2F)c1 (stereo not drawn) [I-331] | > 200 µM |
| NC(=O)C[C@H](NC(=O)c1cn[nH]c1-c1cccc(O)c1)c1cccc(Cl)c1 [I-332] | 10 to 100 µM |
| NC(=O)C[C@H](NC(=O)c1cn[nH]c1-c1ccc(O)cc1)c1cccc(Cl)c1 [I-333] | 10 to 100 µM |
| NC(=O)C[C@H](NC(=O)c1c[nH]nc1-c1ccccc1O)c1cccc(Cl)c1 [I-334] | 10 to 100 µM |
| NC(=O)C[C@H](NC(=O)c1c[nH]nc1-c1ccccn1)c1cccc(Cl)c1 [I-335] | 10 to 100 µM |
| NC(=O)C[C@H](NC(=O)c1cn[nH]c1-c1ccncc1)c1cccc(Cl)c1 [I-336] | 10 to 100 µM |
| N#Cc1cccc(-c2[nH]ncc2C(=O)N[C@@H](CC(N)=O)c2cccc(Cl)c2)c1 [I-337] | < 10 µM |
| N#Cc1ccccc1-c1[nH]ncc1C(=O)N[C@@H](CC(N)=O)c1cccc(Cl)c1 [I-338] | < 10 µM |
| NC(=O)C[C@H](NC(=O)c1cn[nH]c1-c1ccccc1F)c1ccccc1O [I-339] | > 200 µM |
| NC(=O)C[C@H](NC(=O)c1cn[nH]c1-c1ccccc1F)c1ccccn1 [I-340] | > 200 µM |
| NC(=O)C[C@H](NC(=O)c1cn[nH]c1-c1ccccc1F)c1ccncc1 [I-341] | > 200 µM |
| N#Cc1ccccc1[C@H](CC(N)=O)NC(=O)c1cn[nH]c1-c1ccccc1F [I-342] | 10 to 100 µM |
| NC(=O)C[C@H](NC(=O)c1cn[nH]c1C1CCOCC1)c1cccc(Cl)c1 [I-344] | < 10 µM |
| NC(=O)C[C@H](NC(=O)c1cn[nH]c1[C@H]1CCCOC1)c1cccc(Cl)c1 [I-345] | > 200 µM |
| NC(=O)C[C@H](NC(=O)c1cn[nH]c1[C@@H]1CCCOC1)c1cccc(Cl)c1 [I-346] | > 200 µM |
| NC(=O)C[C@H](NC(=O)c1cn[nH]c1[C@@H]1CCCCO1)c1cccc(Cl)c1 [I-347] | > 200 µM |

| SMILES | Kd |
| --- | --- |
| NC(=O)C[C@H](NC(=O)c1cn[nH]c1[C@H]1CCCCO1)c1cccc(Cl)c1 [I-348] | > 200 µM |
| NC(=O)C[C@H](NC(=O)c1cn[nH]c1-c1ccccc1C(N)=O)c1cccc(Cl)c1 [I-349] | 10 to 100 µM |
| NC(=O)C[C@H](NC(=O)c1cn[nH]c1-c1cccc(C(N)=O)c1)c1cccc(Cl)c1 [I-350] | 10 to 100 µM |
| NC(=O)C[C@H](NC(=O)c1cn[nH]c1-c1ccc(C(N)=O)cc1)c1cccc(Cl)c1 [I-351] | 10 to 100 µM |
| NC(=O)C[C@H](NC(=O)c1cn[nH]c1-c1ccccc1F)c1ccccc1C(N)=O [I-352] | > 200 µM |
| NC(=O)C[C@H](NC(=O)c1cn[nH]c1-c1ccccc1F)c1cccc(C(N)=O)c1 [I-353] | > 200 µM |
| NC(=O)C[C@H](NC(=O)c1cn[nH]c1-c1ccccc1F)c1ccc(C(N)=O)cc1 [I-354] | > 200 µM |
| NC(=O)C[C@H](NC(=O)c1c[nH]nc1-c1cccc2nc[nH]c12)c1cccc(Cl)c1 [I-355] | 10 to 100 µM |
| NC(=O)C[C@H](NC(=O)c1c[nH]nc1-c1ccc2[nH]cnc2c1)c1cccc(Cl)c1 [I-356] | 10 to 100 µM |
| NC(=O)C[C@H](NC(=O)c1cn[nH]c1-c1ncccc1F)c1cccc(Cl)c1 [I-357] | > 200 µM |
| NC(=O)C[C@@]1(NC(=O)c2cn[nH]c2-c2ccccc2F)CCc2ccc(Cl)cc21 [I-361] | > 200 µM |
| COCCc1[nH]cc(C(=O)N[C@@H](CC(N)=O)c2cccc(Cl)c2)c1-c1ccccc1F [I-362] | > 200 µM |
| Fc1cccc(N2CC[C@@H]3CCCc4cnc(N5CCOCC5)cc4N[C@H]3C2)c1 [I-363] | > 200 µM |
| c1ccc2c(N3CCC[C@@H](Nc4cncc(N5CCOCC5)c4)C3)nccc2c1 [I-364] | 10 to 100 µM |
| c1ccc2c(N3CCC[C@@H](Nc4cncc(N5CCOCC5)c4)C3)cncc2c1 [I-365] | < 10 µM |
| c1cc2ccc(N3CCC[C@@H](Nc4cncc(N5CCOCC5)c4)C3)cc2cn1 [I-366] | < 10 µM |
| c1ccc2c(N3CCC[C@@H](n4ccc(N5CCOCC5)c5ccnc4-5)C3)nccc2c1 [I-367] | > 200 µM |
| Nc1nc(N[C@@H]2CCCN(c3cccc(F)c3)C2)cc(N2CCOCC2)n1 [I-368] | > 200 µM |
| Nc1cc(N2CCOCC2)cc(N[C@@H]2CCCN(c3cccc(F)c3)C2)n1 [I-369] | > 200 µM |
| Fc1cccc(N2CCC[C@@H](Nc3nccc(N4CCOCC4)n3)C2)c1 [I-370] | > 200 µM |
| OCCN(c1nc(N2CCOCC2)c[nH]1)[C@H]1CCCN(c2cccc(F)c2)C1 [I-372] | > 200 µM |
| Fc1cccc(N2CCC[C@@H](Nc3cc(N4CCNCC4)ncn3)C2)c1 [I-373] | > 200 µM |
| CN1CCN(c2cc(N[C@@H]3CCCN(c4cccc(F)c4)C3)ncn2)CC1 [I-374] | > 200 µM |

| SMILES | Kd |
| --- | --- |
| CCN1CCN(c2cc(N[C@@H]3CCCN(c4cccc(F)c4)C3)ncn2)CC1 [I-375] | > 200 µM |
| CCCN1CCN(c2cc(N[C@@H]3CCCN(c4cccc(F)c4)C3)ncn2)CC1 [I-376] | > 200 µM |
| CCCCN1CCN(c2cc(N[C@@H]3CCCN(c4cccc(F)c4)C3)ncn2)CC1 [I-377] | > 200 µM |
| COCCN1CCN(c2cc(N[C@@H]3CCCN(c4cccc(F)c4)C3)ncn2)CC1 [I-378] | > 200 µM |
| Fc1cccc(N2CCC[C@@H](Nc3cc(N4CCCCC4)ncn3)C2)c1 [I-379] | > 200 µM |
| Fc1cccc(N2CCC[C@@H](Nc3cccc(N4CCOCC4)c3)C2)c1 [I-380] | > 200 µM |
| Fc1cccc(N2CCC[C@@H](Nc3cnnc(N4CCOCC4)c3)C2)c1 [I-381] | > 200 µM |
| Oc1cnc(N2CCOCC2)cc1N[C@@H]1CCCN(c2cccc(F)c2)C1 [I-382] | > 200 µM |
| Fc1cccc(N2C[C@H](Nc3cc(N4CCOCC4)ncn3)C3CC[C@H]2C3)c1 [I-383] | > 200 µM |
| CN(c1cc(N2CCOCC2)ncn1)[C@@H]1CCCN(c2cccc(F)c2)C1 [I-385] | > 200 µM |
| CCN(c1cc(N2CCOCC2)ncn1)[C@@H]1CCCN(c2cccc(F)c2)C1 [I-386] | > 200 µM |
| Fc1cccc(N2CCC[C@@H](N(Cc3ccccc3)c3cc(N4CCOCC4)ncn3)C2)c1 [I-387] | > 200 µM |
| c1ccc2c(N3CCC[C@@H](Nc4cc(N5CCOCC5)ncn4)C3)cccc2c1 [I-388] | > 200 µM |
| c1ccc2cc(N3CCC[C@@H](Nc4cc(N5CCOCC5)ncn4)C3)ccc2c1 [I-389] | > 200 µM |
| c1ccc2c(N3CCC[C@@H](Nc4cc(N5CCOCC5)ncn4)C3)nccc2c1 [I-390] | > 200 µM |
| c1ccc2c(N3CCC[C@@H](Nc4cc(N5CCOCC5)ncn4)C3)cncc2c1 [I-391] | > 200 µM |
| c1ccc2c(N3CCC[C@@H](Nc4cc(N5CCOCC5)ncn4)C3)ccnc2c1 [I-392] | > 200 µM |
| c1cc(N2CCC[C@@H](Nc3cc(N4CCOCC4)ncn3)C2)c2cccnc2c1 [I-393] | > 200 µM |
| c1cc(N2CCC[C@@H](Nc3cc(N4CCOCC4)ncn3)C2)c2ccncc2c1 [I-394] | > 200 µM |
| c1cc(N2CCC[C@@H](Nc3cc(N4CCOCC4)ncn3)C2)c2cnccc2c1 [I-395] | > 200 µM |
| c1cnc2c(N3CCC[C@@H](Nc4cc(N5CCOCC5)ncn4)C3)cccc2c1 [I-396] | > 200 µM |
| c1ccc2nc(N3CCC[C@@H](Nc4cc(N5CCOCC5)ncn4)C3)ccc2c1 [I-397] | > 200 µM |
| c1ccc2cc(N3CCC[C@@H](Nc4cc(N5CCOCC5)ncn4)C3)ncc2c1 [I-398] | > 200 µM |

| SMILES | Kd |
| --- | --- |
| c1ccc2ncc(N3CCC[C@@H](Nc4cc(N5CCOCC5)ncn4)C3)cc2c1 [I-399] | > 200 µM |
| c1cnc2ccc(N3CCC[C@@H](Nc4cc(N5CCOCC5)ncn4)C3)cc2c1 [I-400] | > 200 µM |
| c1cc2cc(N3CCC[C@@H](Nc4cc(N5CCOCC5)ncn4)C3)ccc2cn1 [I-401] | > 200 µM |
| c1cc2ccc(N3CCC[C@@H](Nc4cc(N5CCOCC5)ncn4)C3)cc2cn1 [I-402] | > 200 µM |
| c1cnc2cc(N3CCC[C@@H](Nc4cc(N5CCOCC5)ncn4)C3)ccc2c1 [I-403] | > 200 µM |
| Cc1cnc(N2CCOCC2)cc1N[C@@H]1CCCN(c2cccc(F)c2)C1 [I-404] | > 200 µM |
| Fc1cccc(N2CCC[C@@H](Nc3cc(N4CCOCC4)ncc3C(F)(F)F)C2)c1 [I-405] | > 200 µM |
| Fc1cccc(N2CCC[C@@H](Nc3cc(N4CCOCC4)ncc3Cl)C2)c1 [I-406] | > 200 µM |
| COc1cnc(N2CCOCC2)cc1N[C@@H]1CCCN(c2cccc(F)c2)C1 [I-407] | > 200 µM |
| N#Cc1cnc(N2CCOCC2)cc1N[C@@H]1CCCN(c2cccc(F)c2)C1 [I-408] | > 200 µM |
| Oc1cnc(N[C@@H]2CCCN(c3cccc(F)c3)C2)cc1N1CCOCC1 [I-409] | > 200 µM |
| OCc1cnc(N2CCOCC2)cc1N[C@@H]1CCCN(c2cccc(F)c2)C1 [I-410] | > 200 µM |
| Cc1sc(N2CCC[C@@H](Nc3cc(N4CCOCC4)ccn3)C2)nc1-c1ccccc1 [I-411] | > 200 µM |
| c1cncc(-c2csc(N3CCC[C@@H](Nc4cc(N5CCOCC5)ccn4)C3)n2)c1 [I-412] | > 200 µM |
| NS(=O)(=O)c1nc(N2CCC[C@@H](Nc3cc(N4CCOCC4)ccn3)C2)cs1 [I-413] | > 200 µM |
| N#Cc1nccc(N2CCC[C@@H](Nc3cc(N4CCOCC4)ccn3)C2)n1 [I-414] | > 200 µM |
| Cc1nc(N2CCC[C@@H](Nc3cc(N4CCOCC4)ccn3)C2)nc2ccccc12 [I-415] | 10 to 100 µM |
| c1cncc(-c2ccnc(N3CCC[C@@H](Nc4cc(N5CCOCC5)ccn4)C3)n2)c1 [I-416] | 10 to 100 µM |
| c1cnc2c(N3CCC[C@@H](Nc4cc(N5CCOCC5)ccn4)C3)cnn2c1 [I-417] | > 200 µM |
| Cc1nn(-c2ccccc2)c(C)c1N1CCC[C@@H](Nc2cc(N3CCOCC3)ccn2)C1 [I-418] | > 200 µM |
| CN1CCC(n2cc(N3CCC[C@@H](Nc4cc(N5CCOCC5)ccn4)C3)cn2)CC1 [I-419] | > 200 µM |
